In the supplement of paper PMC10883282:
Where a name gives a salt, the structure may show the parent alone. ± gives the standard deviation of the averaged measurements.

Tested on: A204
Test: relative viability vs DMSO control (72 h) (fraction); higher = more viable cells
How it was run: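 After seeding at densities set for 80–90% confluence in 384-well plates, sarcoma cell lines waited 24 h before 2.5 µl of serially diluted compound was added. Source plates held 10 mM down to 0.0002 mM. Plates were incubated 72 h at 37 °C with 5% CO2, with 0.1% DMSO vehicle and a 5 µM positive control, and relative viability was taken from ATPLite as percent growth averaged over up to triplicate wells, with 1 set as full and 0 as none.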

SMILES | relative viability (0.00017 µM) | relative viability (0.00051 µM) | relative viability (0.00152 µM) | relative viability (0.00457 µM) | relative viability (0.01372 µM) | relative viability (0.04115 µM) | relative viability (0.1235 µM) | relative viability (0.3704 µM) | relative viability (1.111 µM) | relative viability (3.333 µM) | relative viability (10 µM) | relative viability (2 pM) | relative viability (5 pM) | relative viability (15 pM) | relative viability (50 pM) | relative viability (0.00014 µM) | relative viability (0.00041 µM) | relative viability (0.0012 µM) | relative viability (0.0037 µM) | relative viability (0.011 µM) | relative viability (200 fM) | relative viability (600 fM)
Cc1ccc(F)c(NC(=O)Nc2ccc(-c3cccc4[nH]nc(N)c34)cc2)c1 [Linifanib] | 1.07 ± 0.037 | 1.11 ± 0.047 | 1.08 ± 0.037 | 1.073 ± 0.0063 | 1.06 ± 0.02 | 0.973 ± 0.13 | 0.659 ± 0.03 | 0.469 ± 0.066 | 0.435 ± 0.034 | 0.414 ± 0.032 | 0.439 ± 0.01 |  |  |  |  |  |  |  |  |  |  | 
CC(C)N1CCN(Cc2cnc(-c3cc(-c4cccc5[nH]ccc45)cc4[nH]ncc34)o2)CC1 [Nemiralisib] | 0.981 ± 0.046 | 0.988 ± 0.022 | 0.998 ± 0.039 | 0.982 ± 0.015 | 0.97 ± 0.058 | 0.97 ± 0.017 | 0.956 ± 0.0079 | 0.897 ± 0.03 | 0.847 ± 0.053 | 0.631 ± 0.035 | 0.359 ± 0.021 |  |  |  |  |  |  |  |  |  |  | 
COCc1c(-c2cc3cc(C)cc(OC)c3s2)c2c(N)ncnn2c1CN1CCNC(=O)C1 [Rogaratinib] | 1.09 ± 0.039 | 1.07 ± 0.069 | 1.09 ± 0.036 | 1.08 ± 0.019 | 1.05 ± 0.039 | 0.95 ± 0.058 | 0.827 ± 0.048 | 0.631 ± 0.043 | 0.548 ± 0.008 | 0.44 ± 0.014 | 0.268 ± 0.025 |  |  |  |  |  |  |  |  |  |  | 
Cc1cc(Nc2ncnc3ccc(NC4=NC(C)(C)CO4)cc23)ccc1Oc1ccn2ncnc2c1 [Tucatinib] | 1.092 ± 0.0055 | 1.08 ± 0.021 | 1.08 ± 0.024 | 1.1 ± 0.016 | 1.1 ± 0.012 | 1.08 ± 0.011 | 1.09 ± 0.025 | 1.02 ± 0.052 | 1.02 ± 0.067 | 0.985 ± 0.13 | 0.636 ± 0.034 |  |  |  |  |  |  |  |  |  |  | 
O=C(Nc1cnn2ccc(N3CCC[C@@H]3c3cc(F)ccc3F)nc12)N1CC[C@H](O)C1 [Larotrectinib] | 1.11 ± 0.015 | 1.1 ± 0.029 | 1.11 ± 0.037 | 1.06 ± 0.043 | 1.11 ± 0.039 | 1.08 ± 0.02 | 1.09 ± 0.046 | 1.11 ± 0.04 | 1.06 ± 0.057 | 1.115 ± 0.011 | 1.09 ± 0.016 |  |  |  |  |  |  |  |  |  |  | 
CN1CCC(COc2cnc(-c3cccc(Cn4nc(-c5cccc(C#N)c5)ccc4=O)c3)nc2)CC1 [Tepotinib] | 1.11 ± 0.052 | 1.09 ± 0.052 | 1.1 ± 0.044 | 1.09 ± 0.059 | 1.08 ± 0.043 | 1.05 ± 0.012 | 1.09 ± 0.047 | 1.05 ± 0.03 | 1.07 ± 0.083 | 1.06 ± 0.073 | 0.76 ± 0.054 |  |  |  |  |  |  |  |  |  |  | 
C[C@@H]1CCN(C(=O)CC#N)C[C@@H]1N(C)c1ncnc2[nH]ccc12 [Tofacitinib] | 1.09 ± 0.031 | 1.09 ± 0.014 | 1.04 ± 0.046 | 1.08 ± 0.023 | 1.06 ± 0.064 | 1.04 ± 0.094 | 1.02 ± 0.052 | 1.06 ± 0.017 | 1.04 ± 0.057 | 1.02 ± 0.014 | 0.99 ± 0.033 |  |  |  |  |  |  |  |  |  |  | 
N#CC[C@H](C1CCCC1)n1cc(-c2ncnc3[nH]ccc23)cn1 [Ruxolitinib] | 1.02 ± 0.015 | 1.03 ± 0.018 | 1.02 ± 0.049 | 1.02 ± 0.027 | 1.01 ± 0.026 | 1.01 ± 0.005 | 1.008 ± 0.0097 | 0.983 ± 0.031 | 0.96 ± 0.083 | 0.789 ± 0.053 | 0.655 ± 0.05 |  |  |  |  |  |  |  |  |  |  | 
C=CC(=O)N1CCC[C@@H](n2nc(-c3ccc(Oc4ccccc4)cc3)c3c(N)ncnc32)C1 [Ibrutinib] | 1.03 ± 0.019 | 1.06 ± 0.11 | 1.04 ± 0.057 | 1.07 ± 0.059 | 1.05 ± 0.048 | 1.09 ± 0.034 | 1.07 ± 0.095 | 1.07 ± 0.026 | 1.008 ± 0.0098 | 0.939 ± 0.13 | 0.525 ± 0.026 |  |  |  |  |  |  |  |  |  |  | 
COc1c(OCCCN2CCOCC2)ccc2c1N=C(NC(=O)c1cnc(N)nc1)N1CCN=C21 [Copanlisib] | 1.05 ± 0.035 | 1.01 ± 0.07 | 0.927 ± 0.023 | 0.711 ± 0.055 | 0.583 ± 0.037 | 0.481 ± 0.049 | 0.399 ± 0.05 | 0.316 ± 0.027 | 0.268 ± 0.018 | 0.235 ± 0.019 | 0.211 ± 0.038 |  |  |  |  |  |  |  |  |  |  | 
COc1cccc2c1C(=O)c1c(O)c3c(c(O)c1C2=O)C[C@@](O)(C(=O)CO)C[C@@H]3O[C@H]1C[C@H](N)[C@H](O)[C@H](C)O1 [Doxorubicin Hydrochloride] | 1.06 ± 0.015 | 1.07 ± 0.06 | 1.04 ± 0.006 | 0.941 ± 0.031 | 0.779 ± 0.1 | 0.56 ± 0.068 | 0.314 ± 0.032 | 0.137 ± 0.024 | 0.128 ± 0.0019 | 0.123 ± 0.014 | 0.118 ± 0.019 |  |  |  |  |  |  |  |  |  |  | 
CO[C@H]1C[C@@H]2CC[C@@H](C)[C@@](O)(O2)C(=O)C(=O)N2CCCC[C@H]2C(=O)O[C@H]([C@H](C)C[C@@H]2CC[C@@H](OP(C)(C)=O)[C@H](OC)C2)CC(=O)[C@H](C)/C=C(\C)[C@@H](O)[C@@H](OC)C(=O)[C@H](C)C[C@H](C)/C=C/C=C/C=C/1C [Ridaforolimus] | 0.996 ± 0.029 | 0.915 ± 0.019 | 0.783 ± 0.025 | 0.677 ± 0.047 | 0.601 ± 0.07 | 0.582 ± 0.036 | 0.576 ± 0.02 | 0.512 ± 0.042 | 0.532 ± 0.023 | 0.513 ± 0.043 | 0.499 ± 0.0088 |  |  |  |  |  |  |  |  |  |  | 
COc1cc2nccc(Oc3ccc(NC(=O)Nc4cc(C)on4)c(Cl)c3)c2cc1OC [Tivozanib] | 1.1 ± 0.05 | 1.07 ± 0.048 | 1.09 ± 0.032 | 1.08 ± 0.026 | 0.998 ± 0.063 | 0.712 ± 0.021 | 0.504 ± 0.038 | 0.438 ± 0.025 | 0.418 ± 0.029 | 0.348 ± 0.0075 | 0.228 ± 0.02 |  |  |  |  |  |  |  |  |  |  | 
C[C@@H](c1ccc2nccn2c1)n1nnc2ncc(-c3cnn(C)c3)nc21 [Volitinib] | 1.05 ± 0.014 | 1.08 ± 0.046 | 1.1 ± 0.031 | 1.08 ± 0.038 | 1.08 ± 0.033 | 1.07 ± 0.026 | 1.06 ± 0.031 | 1.06 ± 0.044 | 1.05 ± 0.042 | 0.962 ± 0.038 | 0.842 ± 0.072 |  |  |  |  |  |  |  |  |  |  | 
COc1cc2c(cc1O)CCN[C@]21CS[C@@H]2c3c(OC(C)=O)c(C)c4c(c3[C@H](COC1=O)N1[C@@H]2[C@H]2c3c(cc(C)c(OC)c3O)C[C@@H]([C@@H]1O)N2C)OCO4 [Trabectedin] |  |  |  |  |  |  |  |  |  |  |  | 1.08 ± 0.026 | 1.06 ± 0.03 | 1.05 ± 0.056 | 0.979 ± 0.02 | 0.84 ± 0.031 | 0.399 ± 0.17 | 0.156 ± 0.13 | 0.215 ± 0.0065 | 0.202 ± 0.014 | 1.07 ± 0.03 | 1.1 ± 0.043
Cc1nc(-c2cn3c(n2)-c2ccc(-c4cnn(C(C)(C)C(N)=O)c4)cc2OCC3)n(C(C)C)n1 [Taselisib] | 1.05 ± 0.1 | 1.03 ± 0.086 | 0.993 ± 0.039 | 0.924 ± 0.061 | 0.852 ± 0.085 | 0.742 ± 0.041 | 0.609 ± 0.021 | 0.538 ± 0.028 | 0.435 ± 0.019 | 0.354 ± 0.038 | 0.29 ± 0.02 |  |  |  |  |  |  |  |  |  |  | 
COc1cc2c(Oc3ccc4[nH]c(C)cc4c3F)ncnc2cc1OCCCN1CCCC1 [Cediranib] | 1.086 ± 0.0095 | 1.06 ± 0.017 | 1.08 ± 0.064 | 1.09 ± 0.024 | 0.984 ± 0.051 | 0.882 ± 0.09 | 0.457 ± 0.0087 | 0.336 ± 0.0094 | 0.251 ± 0.027 | 0.182 ± 0.0051 | 0.00917 ± 0.0011 |  |  |  |  |  |  |  |  |  |  | 
Cc1nc(NC(=O)N2CCC[C@H]2C(N)=O)sc1-c1ccnc(C(C)(C)C(F)(F)F)c1 [Alpelisib] | 0.942 ± 0.046 | 0.988 ± 0.037 | 1 ± 0.02 | 1.02 ± 0.06 | 0.983 ± 0.019 | 0.925 ± 0.035 | 0.895 ± 0.038 | 0.7675 ± 0.0064 | 0.651 ± 0.027 | 0.557 ± 0.052 | 0.414 ± 0.03 |  |  |  |  |  |  |  |  |  |  | 
COc1cc2/c(=N/c3ccc(Br)cc3F)nc[nH]c2cc1OCC1CCN(C)CC1 [Vandetanib] | 1.04 ± 0.076 | 1.02 ± 0.018 | 1.02 ± 0.049 | 1.03 ± 0.067 | 1.04 ± 0.046 | 1 ± 0.067 | 0.981 ± 0.057 | 0.93 ± 0.07 | 0.706 ± 0.039 | 0.348 ± 0.073 | 0.0148 ± 0.0046 |  |  |  |  |  |  |  |  |  |  | 
